Broadly, the bioavailability is the share of a dose that reaches the circulation, judged against a reference dose that is usually intravenous. A word on the MRT: it is the average time that molecules of a dose stay in the body. By IC50 is commonly meant the concentration at which inhibition is half-maximal. Low values mean greater potency, high ones weaker potency.

Data on 10 compounds can be found in patent publication US11384097B2, “Tetrahydroisoquinoline derivative, preparation method therefor and use thereof” (ZHEJIANG HISUN PHARMACEUTICAL CO., LTD., priority 2018, dated 2022).

Read-outs that look alike come from different tables or passages of the source.

Series [1] is described as follows: Pharmacokinetic study in SD rats (intravenous injection and intragastric administration). The series is classed as in vivo, Sprague Dawley (SD) rats. The settings on record: male, Sprague-Dawley, rat, plasma; for half-life: read-out: Half-life T1/2 (converted); for AUC(0-inf): read-out: area under curve AUC0-∞; for MRT: read-out: residence time MRT. As to the method:
Test Example 3. Oral Pharmacokinetic Studies of the Compounds of the Present Disclosure in SD Rats
SD rats were used as the experimental animal. The rats were intravenously injected or intragastrically administered with the compounds of the present disclosure, and the drug concentrations in plasma at different times were tested by LC/MS/MS methods, so as to research the pharmacokinetic characteristics of compounds of present disclosure in rats.
Forty-eight healthy adult Sprague Dawley (SD) male rats were purchased from Weitong Lihua Laboratory Animal Technology Co., Ltd., production license number: 11400700271077.
48 healthy adult male SD rats were fasted overnight and administered via tail vein injection (at a dosage of 1 mg/kg) and intragastrically administered (at a dosage of 10 mg/kg), respectively. The rats were fed 4 h after the administration.
About 0.2 mL of blood was collected from the jugular vein before administering and at 0.083 hours, 0.25 hours, 0.5 hours, 1 hour, 2 hours, 4 hours, 8 hours, 12 hours, and 24 hours after administering, and heparin sodium was used for anticoagulation. Blood samples were collected and placed on ice, and plasma was separated by centrifugation (centrifugation conditions: 1500 g, 10 min). The collected plasma was stored at −40° C.-20° C. before analysis.
10 μL of plasma sample was taken and 400 μL of acetonitrile (containing internal standard working solution, comprising 5 ng/mL verapamil and 50 ng/mL glibenclamide) was added. The resulting mixture was vortexed for 10 minutes, and centrifuged at 3700 rpm for 10 minutes. 70 μL of the supernatant was taken, and […] of water was added. The resulting mixture was vortexed for 10 minutes, and 2 μL of the mixture was transferred to the LC-MS/MS for sample analysis.

The next series deals with T1, Human AT2R (Homo sapiens, UniProt P50052).
T1 construct: Terbium (Tb) donor label on the receptor; From my own knowledge, the Tag-lite format usually uses an N-terminal SNAP-tag fusion labelled with Lumi4-Tb; expressed in transfected cells
T1 sequence (P50052 1-363): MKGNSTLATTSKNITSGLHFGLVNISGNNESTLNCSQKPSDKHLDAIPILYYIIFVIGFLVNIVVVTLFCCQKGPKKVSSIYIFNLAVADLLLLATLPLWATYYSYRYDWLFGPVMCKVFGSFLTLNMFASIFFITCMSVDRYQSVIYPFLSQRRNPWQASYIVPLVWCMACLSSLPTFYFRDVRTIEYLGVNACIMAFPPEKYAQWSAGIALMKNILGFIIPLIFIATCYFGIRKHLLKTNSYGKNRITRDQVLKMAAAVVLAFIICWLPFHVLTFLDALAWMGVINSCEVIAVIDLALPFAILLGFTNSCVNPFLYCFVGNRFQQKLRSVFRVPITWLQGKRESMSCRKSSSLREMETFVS
As to the kind of experiment: Antagonistic activity assay on human AT2R ligand binding (Tag-lite HTRF, Tb-labeled-AT2R cells). The settings on record: AT2 ligand binding, red agonist fluorescent ligand.

Setting [2] is: iv, Injection (1 mg/kg), tail vein.

Method for Human AT2R: Antagonistic Activity Assay of the Compound of the Present Disclosure on Human AT2R Ligand Binding
According to standard methods, all compounds were dissolved in dimethyl sulfoxide and prepared as 10 mM stock solutions.
(3) Each of the diluted compound in step (2) was transferred to a working plate (3657, Corning) at 160 nL/well, at 200 g, at room temperature for 1 minute;
(4) 40 μl 1×TLB was added to the above working plate, and it was centrifuged at 200 g (centrifugal force) at room temperature for 1 minute, shook on a shaker for 15 minutes to mix well, and centrifuged at 200 g (working concentration of the compound was 4×) at room temperature for 1 minute for later use;
(6) 5 mL 1×TLB was taken in a 15 mL centrifuge tube;
(7) a Tb-labeled-AT2R cells were frozen and thawed in a 37° C. water bath until the ice was completely melted (1-2 minutes);
(8) The frozen and thawed cells were rapidly transferred to the 1×TLB in step (6), and the resulting solution was mixed gently, and then centrifuged at 1200 g at room temperature for 5 minutes;
After being mixed well, the resulting mixture was placed at room temperature for late use;
(11) The reaction plate was centrifuged at 200 g at room temperature for 1 minute, and stood for 1 hour at room temperature of 25° C., and then it was centrifuged at 200 g at room temperature for 1 minute. The data was collected using Envision HTRF microplate reader, and IC50 was calculated using a nonlinear fitting formula.

As to `COc1ccc2c(c1OCc1ccccc1)CC(C(=O)NS(=O)(=O)N(C)C)N(c1nc3ccccc3o1)C2` (centres unmarked) [Example 9, 2-(Benzo[d]oxazol-2-yl)-5-(benzyloxy)-N—(N,N-dimethylsulfonyl)-6-methoxy-1,2,3,4-tetrahydroisoquinoline-3-carboxamide], the bioavailability in series [1] (Oral (10 mg/kg) vs Injection (1 mg/kg), read-out: Bioavailability F(%)) is 71.1%. Moreover, in series [1] (Oral (10 mg/kg)), the half-life was 2.1 ± 1.6 h, the AUC(0-inf) was determined as 18100 ± 5400 ng·h/mL and the MRT is 2.2 ± 0.8 h. Further, the Cmax in series [1] (Oral (10 mg/kg), read-out: blood concentration Cmax) is 9470 ± 5890 ng/mL. Further, in series [1] (setting [2]), the half-life is 1.3 ± 0.1 h, the AUC(0-inf) worked out at 2550 ± 720 ng·h/mL and the MRT worked out at 1.3 ± 0.2 h.

On Human AT2R, `COc1ccc2c(c1OCc1ccccc1)C[C@@H](C(=O)O)N(c1nc3ccc(Cl)cc3o1)C2` [Example 16, (S)-5-(benzyloxy)-2-(6-chlorobenzo[d]oxazol-2-yl)-6-methoxy-1,2,3,4-tetrahydroisoquinoline-3-carboxylic acid] came in with an IC50 of 36 nM.

`COc1ccc2c(c1COc1ccccc1)C[C@@H](C(=O)NS(=O)(=O)N(C)C)N(c1nc3ccc(F)cc3o1)C2` [Example 20, (S)—N—(N,N-dimethylaminosulfonyl)-2-(6-fluorobenzo[d]oxazol-2-yl)-6-methoxy-5-(phenoxymethyl)-1,2,3,4-tetrahydroisoquinoline-3-carboxamide] showed an IC50 at Human AT2R of 26 nM.

In the case of `COc1ccc2c(c1COc1ccccc1)C[C@@H](C(=O)NS(=O)(=O)C1CC1)N(c1nc3ccc(F)cc3o1)C2` [Example 21, (S)—N-(cyclopropylsulfonyl)-2-(6-fluorobenzo[d]oxazol-2-yl)-6-methoxy-5-(phenoxymethyl)-1,2,3,4-tetrahydroisoquinoline-3-carboxamide], at Human AT2R, the 50% inhibitory concentration (IC50) was 36 nM. This IC50 and that of the compound before are within 1.5-fold of each other.

Compound `COc1ccc2c(c1OCc1ccccc1)C[C@@H](C(=O)NS(C)(=O)=O)N(c1nc3ccc(F)cc3o1)C2` [Example 26, (S)-5-(Benzyloxy)-2-(6-fluorobenzo[d]oxazol-2-yl)-6-methoxy-N-(methylsulfonyl)-1,2,3,4-tetrahydroisoquinoline-3-carboxamide] returned an IC50 on Human AT2R of 37 nM.

Compound `COc1ccc2c(c1OCc1ccc(C(F)(F)F)cc1)C[C@@H](C(=O)O)N(c1nc3ccc(F)cc3o1)C2` [Example 38, (S)-2-(6-fluorobenzo[d]oxazol-2-yl)-6-methoxy-5-((4-(trifluoromethyl)benzyl)oxy)-1,2,3,4-tetrahydroisoquinoline-3-carboxylic acid] gave an IC50 at Human AT2R of 11 nM.

For the compound `COc1ccc(COc2c(OC)ccc3c2C[C@@H](C(=O)O)N(c2nc4ccc(C#N)cc4o2)C3)cn1` [Example 43, (S)-2-(6-cyanobenzo[d]oxazol-2-yl)-6-methoxy-5-((6-methoxypyridin-3-yl)methoxy)-1,2,3,4-tetrahydroisoquinoline-3-carboxylic acid], on Human AT2R, the IC50 is 33 nM.

On Human AT2R, `COc1ccc(COc2c(OC)ccc3c2C[C@@H](C(=O)O)N(c2nc4ccc(C#N)cc4o2)C3)nc1` [Example 44, (S)-2-(6-cyanobenzo[d]oxazol-2-yl)-6-methoxy-5-((5-methoxypyridin-2-yl)methoxy)-1,2,3,4-tetrahydroisoquinoline-3-carboxylic acid] gave a half-inhibitory concentration (IC50) of 33 nM.

As for `CCS(=O)(=O)NC(=O)[C@@H]1Cc2c(ccc(OC)c2OCc2ccc(OC)cc2)CN1c1nc2ccc(F)cc2o1` [Example 45, (S)—N-(ethylsulfonyl)-2-(6-fluorobenzo[d]oxazol-2-yl)-6-methoxy-5-((4-methoxybenzyl)oxy)-1,2,3,4-tetrahydroisoquinoline-3-carboxamide], the IC50 on Human AT2R came out at 6 nM.

As for `COc1ccc(COc2c(OC)ccc3c2C[C@@H](C(=O)NS(=O)(=O)N(C)C)N(c2nc4ccc(F)cc4o2)C3)cc1` [Example 46], on Human AT2R, the concentration for half-maximal inhibition (IC50) stood at 5 nM.
